A word on the KD: it is the concentration at which binding is half-saturated.

The source of these data is article PMC5244364 (2017).

The subject of assay [1] is VEGFA (DNA, G4) GGGGGCGGGCCGGGGGCGGGGTCCCGGCGGGGCGGAG
The assay is described as follows: ITC. The settings on record: 100 mM KCl, K+ phosphate; 10 mM potassium phosphate pH 7.0, 25 °C; 100 µM DNA injected into 10 µM compound; one set of sites.

Assay [2] relates to BCL2 (DNA, G4) CGGGCGCGGGAGGAATTGGGCGGGAGC
As to the kind of experiment: ITC. Particulars: 100 mM KCl, K+ phosphate; 10 mM potassium phosphate pH 7.0, 25 °C; 100 µM DNA injected into 10 µM compound; one set of sites.

Assay [3] deals with KRAS (DNA, G4) GGGAGGGAGGGAAGGAGGGAGGGAGGGA
As to the kind of experiment: ITC. Particulars: 100 mM KCl, K+ phosphate; 10 mM potassium phosphate pH 7.0, 25 °C; 100 µM DNA injected into 10 µM compound; one set of sites.

Assay [4] concerns GC rich duplex DNA (DNA, duplex) AGGGTGGGGAGGGT/ACCCTCCCCACCCT
As to the kind of experiment: ITC. The settings on record: 100 mM KCl, K+ phosphate; 10 mM potassium phosphate pH 7.0, 25 °C; 100 µM duplex injected into 10 µM compound.

In assay [5] the test system is VEGFA (DNA, G4) GGGGGCGGGCCGGGGGCGGGGTCCCGGCGGGGCGGAG
The assay is described as follows: CD melting. Particulars: 100 mM KCl, K+ phosphate; 10 mM potassium phosphate pH 7.0; 1:2 DNA:compound (10 µM DNA in CD titration); Tm free 67.3.

Assay [6] deals with BCL2 (DNA, G4) CGGGCGCGGGAGGAATTGGGCGGGAGC
The assay is described as follows: CD melting. Particulars: 100 mM KCl, K+ phosphate; 10 mM potassium phosphate pH 7.0; 1:2 DNA:compound (10 µM DNA in CD titration); Tm free 57.1.

Assay [7] has as its system KRAS (DNA, G4) GGGAGGGAGGGAAGGAGGGAGGGAGGGA
The assay is described as follows: CD melting. The settings on record: 100 mM KCl, K+ phosphate; 10 mM potassium phosphate pH 7.0; 1:2 DNA:compound (10 µM DNA in CD titration); Tm free 67.5.

In assay [8] the test system is GC rich duplex DNA (DNA, duplex) AGGGTGGGGAGGGT/ACCCTCCCCACCCT
As to the kind of experiment: UV absorption titration. The settings on record: 100 mM KCl, K+ phosphate; 10 mM potassium phosphate pH 7.0; 10 µM compound, 0–20 µM duplex; quadruplex affinity 4–16 fold higher.

Assay [9] concerns VEGFA (DNA, G4) GGGGGCGGGCCGGGGGCGGGGTCCCGGCGGGGCGGAG
As to the kind of experiment: UV absorption titration (316 nm). Particulars: 100 mM KCl, K+ phosphate; 10 mM potassium phosphate pH 7.0; 10 µM compound titrated with 0–20 µM DNA; one-site fit.

Assay [10] has as its system BCL2 (DNA, G4) CGGGCGCGGGAGGAATTGGGCGGGAGC
As to the kind of experiment: UV absorption titration (316 nm). Particulars: 100 mM KCl, K+ phosphate; 10 mM potassium phosphate pH 7.0; 10 µM compound titrated with 0–20 µM DNA; one-site fit.

The subject of assay [11] is KRAS (DNA, G4) GGGAGGGAGGGAAGGAGGGAGGGAGGGA
The assay is described as follows: UV absorption titration (316 nm). The settings on record: 100 mM KCl, K+ phosphate; 10 mM potassium phosphate pH 7.0; 10 µM compound titrated with 0–20 µM DNA; one-site fit.

Assay [12] deals with VEGFA (DNA, G4) GGGGGCGGGCCGGGGGCGGGGTCCCGGCGGGGCGGAG
As to the kind of experiment: fluorescence anisotropy of compound. The settings on record: 100 mM KCl, K+ phosphate; 10 mM potassium phosphate pH 7.0; 10 µM compound titrated with DNA. Background: In fluorescence polarisation assays a small probe gives low polarisation when free and higher when bound to something large.

Assay [13] has as its system BCL2 (DNA, G4) CGGGCGCGGGAGGAATTGGGCGGGAGC
The assay is described as follows: fluorescence anisotropy of compound. Particulars: 100 mM KCl, K+ phosphate; 10 mM potassium phosphate pH 7.0; 10 µM compound titrated with DNA.

The test system of assay [14] is KRAS (DNA, G4) GGGAGGGAGGGAAGGAGGGAGGGAGGGA
The assay is described as follows: fluorescence anisotropy of compound. Particulars: 100 mM KCl, K+ phosphate; 10 mM potassium phosphate pH 7.0; 10 µM compound titrated with DNA.

For assay [15], the system named is GC rich duplex DNA (DNA, duplex) AGGGTGGGGAGGGT/ACCCTCCCCACCCT
The assay is described as follows: fluorescence anisotropy of compound. Particulars: 100 mM KCl, K+ phosphate; 10 mM potassium phosphate pH 7.0; 10 µM compound, 0–20 µM duplex.

For assay [16], the system named is VEGFA (DNA, G4) GGGGGCGGGCCGGGGGCGGGGTCCCGGCGGGGCGGAG
As to the kind of experiment: ethidium bromide displacement, fluorescence. Particulars: 100 mM KCl, K+ phosphate; 10 mM potassium phosphate pH 7.0; 5 µM ethidium bromide displaced, 10 µM DNA.

The subject of assay [17] is BCL2 (DNA, G4) CGGGCGCGGGAGGAATTGGGCGGGAGC
As to the kind of experiment: ethidium bromide displacement, fluorescence. The settings on record: 100 mM KCl, K+ phosphate; 10 mM potassium phosphate pH 7.0; 5 µM ethidium bromide displaced, 10 µM DNA.

For assay [18], the system named is KRAS (DNA, G4) GGGAGGGAGGGAAGGAGGGAGGGAGGGA
The assay is described as follows: ethidium bromide displacement, fluorescence. The settings on record: 100 mM KCl, K+ phosphate; 10 mM potassium phosphate pH 7.0; 5 µM ethidium bromide displaced, 10 µM DNA.

`COc1ccc2c(c[n+](C)c3c4cc5c(cc4ccc23)OCO5)c1OC`: the KD in assay [1] amounted to 980 nM; in assay [2] it was 600 nM; in [3], 870 nM; in [4] it was 4330 nM; in assay [8] it was 8330 ± 400 nM; in assay [9], 510 ± 300 nM. In addition, the KD amounted to 1920 ± 700 nM in [10]; 720 ± 200 nM in assay [11]; 250 nM in assay [12]; 3200 nM in assay [13]; 1500 nM in assay [14]; 6140 ± 2000 nM in assay [15]. Also, the “∆Tm” value is 3.3 °C in assay [5], 16.2 °C in [6] and 4.6 °C in assay [7]. The binding result in assay [16], in assay [17] and in [18] was “yes” each time.
